In ChEMBL document CHEMBL1697821, “Development of a phospholipidosis database and predictive quantitative structure-activity relationship (QSAR) models” (Toxicol Mech Methods, 2008) one finds Phospholipidosis data, which are given here for 21 compounds.

This series has as its system Phospholipidosis. In words: Literature-mined public compounds from Kruhlak et al phospholipidosis modelling dataset.
On to `Cc1ccc(S(=O)(=O)NC(=O)NC2CCCCC2)cc1N` [METAHEXAMIDE], for which the Phospholipidosis entry is “Negative: based on the absence of positive reported data from WMDD”.

Turning to `Cc1cc(C)cc(OCC2CNC(=O)O2)c1` (stereo unspecified) [METAXALONE], the Phospholipidosis result was “Negative: based on the absence of positive reported data from WMDD”.

As for `CN(C)C(=N)N=C(N)N` [METFORMIN], the Phospholipidosis result is “Negative: confirmed by electron microscopy”. Consider `CC(=O)OC(C)C[N+](C)(C)C` (stereo unspecified) [METHACHOLINE], for which the Phospholipidosis entry is “Negative: based on the absence of positive reported data from WMDD”.

As to `C[C@]12C=CC(=O)C=C1CC[C@@H]1[C@@H]2CC[C@@]2(C)[C@H]1CC[C@]2(C)O` [METHANDROSTENOLONE], the Phospholipidosis entry is recorded as “Negative: based on the absence of positive reported data from WMDD”. Under `COc1ccccc1OCC(O)COC(N)=O` (stereo unspecified) [METHOCARBAMOL] stands “Negative: based on the absence of positive reported data from WMDD”; under `C[C@](N)(Cc1ccc(O)c(O)c1)C(=O)O` [METHYLDOPA], “Negative: confirmed by electron microscopy”. The entry for `COC(=O)c1ccc(O)cc1` [METHYLPARABEN] is “Negative: based on the absence of positive reported data from WMDD”; for `CCC1(CC)C(=O)NCC(C)C1=O` (stereo unspecified) [METHYPRYLON] it is “Negative: based on the absence of positive reported data from WMDD”; for `CO[C@H]1[C@@H](O)C[C@H](O[C@H]2[C@@H](O)C[C@H](O[C@H]3[C@@H](O)C[C@H](O[C@H]4CC[C@@]5(C)[C@H](CC[C@@H]6[C@@H]5C[C@@H](O)[C@]5(C)[C@@H](C7=CC(=O)OC7)CC[C@]65O)C4)O[C@@H]3C)O[C@@H]2C)O[C@@H]1C` [METILDIGOXIN] it is “Negative: based on the absence of positive reported data from WMDD”.

Turning to `COc1ccc2cc1Oc1cc3c(cc1OC)CC[N+](C)(C)[C@H]3Cc1ccc(cc1)Oc1c(OC)c(OC)cc3c1[C@@H](C2)[N+](C)(C)CC3` [METOCURINE], the Phospholipidosis entry is “Negative: based on the absence of positive reported data from WMDD”. Consider `COCCc1ccc(OCC(O)CNC(C)C)cc1` (stereo unspecified) [METOPROLOL], for which the Phospholipidosis result is “Negative: based on the absence of positive reported data from WMDD”. Consider `CC(=O)Nc1c(I)c(C(=O)O)c(I)c(N(C)C(C)=O)c1I` [METRIZOIC ACID], for which the Phospholipidosis result is given as “Negative: based on the absence of positive reported data from WMDD”. Under `Cc1ncc([N+](=O)[O-])n1CCO` [METRONIDAZOLE] stands “Negative: based on the absence of positive reported data from WMDD”; under `CC(C)(C(=O)c1cccnc1)c1cccnc1` [METYRAPONE], “Negative: based on the absence of positive reported data from WMDD”; under `CC1(C)S[C@@H]2[C@H](NC(=O)[C@H](NC(=O)N3CCN(S(C)(=O)=O)C3=O)c3ccccc3)C(=O)N2[C@H]1C(=O)O` [MEZLOCILLIN], “Negative: based on the absence of positive reported data from WMDD”.

Consider `CN1CCN2c3ccccc3Cc3ccccc3C2C1` (stereo unspecified) [MIANSERIN], for which the Phospholipidosis result was “Positive: weak inducer based on presence of foamy macrophages and cytoplasmic vacuolations”. Turning to `Cc1ncc2n1-c1ccc(Cl)cc1C(c1ccccc1F)=NC2` [MIDAZOLAM], the Phospholipidosis result was “Negative: based on the absence of positive reported data from WMDD”. Under `CCCCC(C)(O)C/C=C/[C@H]1[C@H](O)CC(=O)[C@@H]1CCCCCCC(=O)OC` (stereo partly specified) [MISOPROSTOL] stands “Negative: based on the absence of positive reported data from WMDD”; under `O[C@@H]([C@H](O)[C@H](O)CBr)[C@H](O)CBr` [MITOBRONITOL], “Negative: based on the absence of positive reported data from WMDD”; under `NC(=O)C[S+]([O-])C(c1ccccc1)c1ccccc1` (stereo unspecified) [MODAFINIL], “Negative: based on the absence of positive reported data from WMDD”.
